Read-outs that look alike come from different tables or passages of the source.
Assays:
[1] = tested on: U87 and U251 glioma cells, and U251^Oct-3/4 glioma stem-like cells; conditions: 5-ALA 1 mM + ultrasound 3 MHz, 2 W/cm^2, 20% duty cycle, 3 min; cited from earlier work
[2] = tested on: rat osteosarcoma UMR-106 cells; conditions: 5-ALA 250 mg/kg i.v. 8 h before ultrasound 1.0 MHz, 2.5 W/cm^2, 8 min daily for 10 days; vs all other groups; cited from earlier work
[3] = tested on: human U87 glioma cells or U251^Oct-3/4 glioma stem-like cells; conditions: 5-ALA 100 mg/kg + ultrasound 2.2 MHz, 0.5 or 2.0 W/cm^2, 3 min, weekly for 3 weeks; cited from earlier work
normal control cells = conditions: 5-ALA 1 mM + ultrasound 3 MHz, 2 W/cm^2, 20% duty cycle, 3 min; cited from earlier work
SAS cells = conditions: cited from earlier work; for cell viability: about 2 W/cm^2, 2 min
C6 rat glioma cells = conditions: 5-ALA 100 mg/kg orally 3 h before ultrasound 1.04 MHz, 10 W/cm^2, 5 min; vs 5-ALA or ultrasound alone; cited from earlier work
C6 glioma cells = conditions: 5-ALA 60 mg/kg or Radachlorin 40 mg/kg + ultrasound 1.0 MHz, 2.65 W/cm^2, 20 min; vs control groups; cited from earlier work
mammary tumors = conditions: porfimer sodium 2.5 mg/kg or higher i.v. 24 h before ultrasound 1.92 MHz, 15 min, 3 W/cm^2 or higher; cited from earlier work
normal brain tissue = conditions: cited from earlier work
[4] = tested on: human THP-1 monocytes (induced to become macrophages and foam cells); conditions: berberine 30 μg/mL, ultrasound 1.0 MHz, 0.4 W/cm^2, 10 min; cited from earlier work

Description for C6 glioma tumor cells: Male Wistar rats received injections of 4×10^5 C6 glioma tumor cells by injection into the right cortex of the brain. On day 7 after injection, rats were administered 5-aminolevulinic acid (20 mg/kg or 0 mg/kg, Levulan®, DUSA Pharmaceuticals, Wilmington, MA) orally, three hours prior to treatment.
Rats were anesthetized and set inside an MRI-guided focused ultrasound system (“FUS”, RK300, FUS Instruments, Toronto, Canada), having a 25 mm diameter spherically curved transducer (resonant frequency f0=1.06 MHz, focal number=0.8). The FUS, with rat, was then inserted into a 7 Telsa MRI system (Brucker BioSpec 70/30 USR, Bruker Ltd., Milton, Ontario, Canada). The MRI was used to precisely aim the FUS device at the brain tumor. Rats were then sonicated at one of four spatial peak temporal average intensities (ISPTA) (6.9 W/cm^2, 13.8 W/cm^2, 27.6 W/cm^2, or 55.2 W/cm^2) for 20 minutes. One group (N=6) was cyclicly sonicated at 27.6 W/cm^2 for 20 minutes, divided into 16 sonication periods of 85 seconds, separated by rest periods of 60 seconds (the multiple point, or “MP” group). In the MP group, 16 individual points within the tumor were sonicated. Control groups (N=5 each) received 5-ALA without FUS treatment, FUS treatment without 5-ALA, or neither 5-ALA nor FUS. Tumor temperature was monitored during sonication using magnetic resonance thermometry. Normalized tumor volume was measured by MRI on days 7, 14, 21, 28, and 35 following injection.

## NCC(=O)CCC(=O)O [5-ALA, 5-aminolevulinic acid]
[1]
  cytotoxicity to tumor cells: substantially cytotoxic to all tumor cells tested
[2]
  tumor volumes: significantly smaller than all other groups
C6 glioma tumor cells; 5-ALA 20 mg/kg + FUS 27.6 W/cm^2, 16 points, 16 periods of 85 s with 60 s rest
  survival, multiple point (MP) group: greatest increase in survival
C6 glioma tumor cells; 5-ALA 20 mg/kg orally 3 h before FUS (1.06 MHz, 20 min), all experimental groups
  survival: improved survival
C6 glioma tumor cells; 5-ALA 20 mg/kg orally 3 h before FUS (1.06 MHz, 20 min), all experimental groups vs control animals
  tumor growth: inhibited tumor growth
C6 glioma tumor cells; 5-ALA 20 mg/kg, sonication at 55.2 W/cm^2
  tissue damage: suffered tissue damage
C6 glioma tumor cells; 5-ALA only group (20 mg/kg orally), no FUS
  normalized tumor volume: 24+6 mm^3
C6 glioma tumor cells; MP group: 5-ALA 20 mg/kg + FUS 27.6 W/cm^2 at 16 points
  subjects surviving past 60 days: 50%
[3]
  survival of treated mice: significantly improved the survival
Normal control cells
  cytotoxicity to normal control cells: not to normal control cells
SAS cells; 10 μg/mL 5-ALA added to ultrasound, vs ultrasound alone
  SAS cell apoptosis, intracellular reactive oxygen species, and lipid peroxidation: significantly increased these effects
SAS cells; 5-ALA 1 μg/mL 4 h before ultrasound 1.05 MHz
  cell viability: 88%
SAS cells; 5-ALA 10 μg/mL 4 h before ultrasound 1.05 MHz
  cell viability: 75%
SAS cells; 5-ALA 50 μg/mL 4 h before ultrasound 1.05 MHz
  cell viability: 62%
C6 rat glioma cells
  tumor size: significantly smaller tumors
C6 glioma cells
  tumor size: significantly smaller in size

## porfimer sodium
Mammary tumors
  tumor growth: effectively inhibited tumor growth

## O=C([O-])c1c(Cl)c(Cl)c(Cl)c(Cl)c1-c1c2cc(I)c(=O)c(I)c-2oc2c(I)c([O-])c(I)cc12.[Na+].[Na+] [Rose Bengal]
Normal brain tissue; Rose Bengal 10 mg/kg, ultrasound 110 W/cm^2, 3 min
  rats displaying lesions: 5/5
Normal brain tissue; Rose Bengal 10 mg/kg, ultrasound 110 W/cm^2, 5 min
  rats displaying lesions: 6/7
Normal brain tissue; Rose Bengal 50 mg/kg, ultrasound 110 W/cm^2, 3 min
  rats displaying lesions: 5/5
Normal brain tissue; Rose Bengal 50 mg/kg, ultrasound 110 W/cm^2, 5 min
  rats displaying lesions: 6/6
Normal brain tissue; ultrasound 25 W/cm^2, with or without Rose Bengal
  lesions in normal brain tissue: no lesions

## COc1ccc2cc3[n+](cc2c1OC)CCc1cc2c(cc1-3)OCO2 [berberine]
[4]
  autophagy in macrophages: induced autophagy in macrophages
  cholesterol efflux: increased cholesterol efflux
